# Legend:
# [1] = Toxicological screening, bi-weekly/weekly subcutaneous dosing (TOX7345)
# Method: (§1) For each study group, the following toxicological screening was performed: mortality, body weight, food consumption, clinical observations, ophthalmology, electrocardiography, hematology, serum biochemistry, urinalysis, injection site evaluations (erythema and edema), neurological examinations, histology, and peripheral neuropathy.
# [2] = Plasma pharmacokinetics, daily (5/7 days) subcutaneous dosing (TOX8394)
# in vivo [3] = assay: in vivo
# Method: as §1
# in vivo [4] = settings: both, cynomolgus monkey, plasma
# Method: For bi-weekly dosing treatment (TOX 7345), a group of 3 male and 3 female Cynomolgus monkeys were dosed for 4 cycles.
# The test substance and vehicle were freshly prepared on the day of use.
# For each study, the values of the time to maximum plasma concentration (Tmax), the maximum plasma concentration (Cmax) were determined by visual inspection of the data. The area-under-the plasma-concentration-time curve (AUC) was estimated by the linear trapezoidal rule. Plasma samples were analyzed using a validated LC/MS/MS method with a lower quantification limit of about 0.5 ng/ml.
# [5] = tested on: 20S proteasome (chymotryptic activity) in whole blood; assay: 20S proteasome inhibition in whole blood, daily (5/7 days) dosing (TOX8394); type: in vivo, Cynomolgus monkeys
# Method: For each study, the 20S proteasome activity in whole blood was determined, as described in Lightcap, Clin. Chem., 46:673 (2000). The chymotryptic activity was assayed by measuring the rate at which the proteasome hydrolyzed an amide bond in a small fluorescence tagged polypeptide substrate. The specific activity (Spa) was normalized to the amount of protein present in the lysate.
# [6] = both, cynomolgus monkey, in vivo
# [7] = cynomolgus monkey, in vivo, 0.1 mg/kg
# [8] = day 3, 0.0166 mg/kg sc daily (5/7 days)
# [9] = day 3, 0.0333 mg/kg sc daily (5/7 days)
# [10] = day 3, 0.05 mg/kg sc daily (5/7 days)
structure (smiles),measurement,setting,value
CC(C)C[C@H](NC(=O)[C@H](Cc1ccccc1)NC(=O)c1cnccn1)B(O)O [bortezomib],Mortality,"[1]; 0.166 mg/kg weekly, considered treatment related","1 F (day 72), 1 M (day 79), at"
same,MTD at 4 cycles,[1]; [6],~0.1 mg/kg
same,"Peripheral neuropathy: focal axonal neurofiber degeneration, spinal cord (dorsal root ganglia)",[1]; [6],0.1/0.166 (weekly) mg/kg minimal
same,Body weight,"[1]; cynomolgus monkey, in vivo",No body weight loss at other dose
same,Electrocardiography,"[1]; cynomolgus monkey, in vivo",No abnormalities found at any
same,Haemathology,"[1]; cynomolgus monkey, in vivo",No hematological changes related
same,Histology: PANCREAS,"[1]; cynomolgus monkey, in vivo",PANCREAS: no findings
same,Histology: PROSTATE,"[1]; cynomolgus monkey, in vivo",PROSTATE: no findings
same,Ophthalmology,"[1]; cynomolgus monkey, in vivo",No treatment related changes
same,Urinalysis,"[1]; cynomolgus monkey, in vivo",No treatment related findings
same,Histology: LYMPH NODES,[1]; [7],LYMPH NODES: lymphoid atrophy
same,Histology: SPLEEN,[1]; [7],"SPLEEN: pulp, lymphoid atrophy"
same,Mortality,"[1]; other dose levels (0.075, 0.1 mg/kg bi-weekly)",No mortality at other dose levels
same,Tmax,[2]; [8],0.138 (0.05) h
same,Tmax,[2]; [9],0.165 (0.07) h
same,Tmax,[2]; [10],0.203 (0.07) h
same,Tmax,"[2]; day 54, 0.0166 mg/kg sc daily (5/7 days)",0.161 (0.07) h
same,Tmax,"[2]; day 54, 0.0333 mg/kg sc daily (5/7 days)",0.184 (0.07) h
same,Tmax,"[2]; day 54, 0.05 mg/kg sc daily (5/7 days)",0.185 (0.07) h
same,Kidney weights,"in vivo [3]; 0.05 mg/kg/dose, all monkeys",greater than kidney weights of control monkeys
same,Injection site histopathological finding,"in vivo [3]; 0.05 mg/kg/dose, male and female",fibroplasia
same,"Peripheral neuropathy: peripheral (sciatic, tibial and peroneal nerves) degeneration",in vivo [3]; 0.0333-0.05 mg/kg,peroneal nerves): minimal
same,Peripheral neuropathy: spinal cord dorsal funiculi (cervical & lumbar),in vivo [3]; 0.0333-0.05 mg/kg,& lumbar) minimal degeneration
same,Clinical observations: faeces,in vivo [3]; 0.0333 or 0.05 mg/kg,"Abnormal faeces (soft, liquid, 0.0333"
same,MTD at 8 weeks,in vivo [3]; [6],~0.05 mg/kg
same,Body weight,"in vivo [3]; cynomolgus monkey, in vivo",No body weight loss at any other
same,"ECG, ophthalmology, rectal temperature or blood pressure","in vivo [3]; cynomolgus monkey, in vivo",No bortezomib-related changes
same,Electrocardiography,"in vivo [3]; cynomolgus monkey, in vivo",No abnormalities found at any dose
same,Fibrinogen concentrations,"in vivo [3]; cynomolgus monkey, in vivo",fibrinogen concentrations increased
same,Gross abnormalities at necropsy,"in vivo [3]; cynomolgus monkey, in vivo",no gross abnormalities
same,Haemathology: mean platelet volume,"in vivo [3]; cynomolgus monkey, in vivo",mean platelet volume increased
same,Haemathology: platelet numbers,"in vivo [3]; cynomolgus monkey, in vivo",Platelet numbers decreased
same,Histology: BONE MARROW,"in vivo [3]; cynomolgus monkey, in vivo",BONE MARROW: no findings
same,Histology: LYMPH NODES,"in vivo [3]; cynomolgus monkey, in vivo",LYMPH NODES: no findings
same,Histology: SPLEEN,"in vivo [3]; cynomolgus monkey, in vivo",SPLEEN: no findings
same,Ophthalmology,"in vivo [3]; cynomolgus monkey, in vivo",No treatment related changes
same,Urinalysis,"in vivo [3]; cynomolgus monkey, in vivo",No treatment related findings
same,"Urinalysis parameters creatinine, inorganic phosphorus, ketones, protein and sodium","in vivo [3]; cynomolgus monkey, in vivo",Increases
same,Tolerability,"in vivo [3]; cynomolgus monkey, in vivo, sc",well tolerated
same,Stool,"in vivo [3]; multiple days, one male each at 0.0166 and 0.0333, one female at 0.05 mg/kg/dose",Soft stool
same,Body weight lost,in vivo [3]; nine male and female monkeys in the 0.0333 and 0.05 mg/kg/dose groups,3-12%
same,No Observed Adverse Effect Level (NOAEL),in vivo [3]; repeated five times weekly sc administration for 8 weeks,cannot be identified
same,AUC(0-t),"in vivo [4]; Cynomolgus, sc, 0.166 mg/kg",229 ng·h/mL
same,Cmax,"in vivo [4]; Cynomolgus, sc, 0.166 mg/kg",158 ng/mL
same,Tmax,"in vivo [4]; Cynomolgus, sc, 0.166 mg/kg",13.8 min
same,Tmax,"in vivo [4]; Cynomolgus, subcutaneous",≤ 15 min
same,Cmax,"in vivo [4]; sc, 0.075 mg/kg",61.1 ng/mL
same,Cmax,"in vivo [4]; sc, 0.1 mg/kg",86.2 ng/mL
same,Tmax,"in vivo [4]; sc, 0.1 mg/kg",7.02 min
same,AUC(0-t),"in vivo [4]; sc, 0.166 mg/kg",160 ng·h/mL
same,Cmax,"in vivo [4]; sc, 0.166 mg/kg",144 ng/mL
same,Tmax,"in vivo [4]; sc, 0.166 mg/kg",7.02 min
same,"cumulative AUE (over 1 week), daily schedule higher than bi-weekly",[5]; 0.05 mg/kg daily vs 0.1 mg/kg bi-weekly,about 50%
same,AUE0-24 h,[5]; about 0.6 mg/m^2 once daily,900 %. h
same,remaining 20S proteasome inhibition at the end of each 2-day drug-holiday,[5]; activity determined on various days before dosing,no indication for remaining 20S proteasome inhibition
same,highest inhibition (Emax),"[5]; daily schedule, 0.05 mg/kg",73%
same,cumulative weekly AUE,"[5]; daily schedule, about 0.6 mg/m^2",4500 %. h
same,AUE0-24 h,[5]; [8],603 (77) % Inhibition · time
same,Emax (% proteasome inhibition),[5]; [8],48%
same,Tmax (time of occurrence of Emax),[5]; [8],30 min
same,AUE0-24 h,[5]; [9],685 (32) % Inhibition · time
same,Emax (% proteasome inhibition),[5]; [9],58%
same,Tmax (time of occurrence of Emax),[5]; [9],30 min
same,AUE0-24 h,[5]; [10],802 (67) % Inhibition · time
same,Emax (% proteasome inhibition),[5]; [10],65%

# From patent US20110189204A1, “Treatment of Disease with Proteasone Inhibitors” (priority 2009, published 2011)
